Data as given in paper PMC8002893, “Influence of Complexation of Thiosemicarbazone Derivatives with Cu (II) Ions on Their Antitumor Activity against Melanoma Cells” (International Journal of Molecular Sciences, 2021).

Columns and labels:
[1] = system: A375 human melanoma cells; assay: MTT cell viability assay, A375 melanoma; type: cell-based; conditions: for IC50: A375, MTT test, 24 h treatment
Method: (§1) The evaluation of cytotoxicity of tested compounds was carried out on the G361, A375, and SK-MEL-28 human melanoma cells and BJ human normal fibroblast cells. The cell lines were obtained from American Type Culture Collection (ATCC, Manassas, VA, USA). The cells were cultured at 37 °C in the presence of 5% CO2 in atmosphere. The culture medium (Dulbecco’s Modified Eagle’s Medium for G361 and A375 and Eagle’s Minimum Essential Medium for SK-MEL-28 and BJ) was supplemented with 10% foetal bovine serum. The cells morphology was examined under inverted phase contrast microscope Nikon Eclipse Ti (Nikon, Tokyo, Japan). The authenticity of tested cell lines was verified by short tandem repeat (STR) genotyping in the Department of Forensic Medicine (Medical University of Lublin, Lublin, Poland).
(§2) The cells were seeded into 96-well plates (in concentration: BJ, A375, and SK-MEL-28—1 × 10^5 cells/mL, G361—1.5 × 10^5 cells/mL) and cultured until they reach 70–80% confluency. Then the cells were incubated with tested compounds and dacarbazine in concentrations ranging from 10 to 500 µM or DMSO as vehicle in control cultures for next 24 h (max. DMSO concentration <0.5%). The compounds cytotoxicity was evaluated with the MTT colorimetric method based on the ability of viable cells to the transformation of tetrazolium salts (3-[4,5-dimethylthiazol-2-yl]-2,5-) diphenyltetrazolium bromide, MTT) to purple formazan, by cellular dehydrogenases. After 24-h-incubation cell cultures were supplemented with 20 µL of 5 mg/mL MTT (Thermofisher, Waltham, MA, USA) stock in PBS (Corning, NY, USA), and the incubation was continued for 4 h at 37 °C. Next, the medium with MTT was removed, and the formed crystals were dissolved in 200 µL of DMSO (dimethyl sulfoxide, Avantor, Gliwice, Poland). The solution absorbency was measured at 570 nm, using a PowerWave™ xs microplate spectrophotometer (BioTek Instruments, Winooski, VT, USA). The experiment was performed three times with three replicates for each concentration of tested compounds. IC50 values were determined using the AAT Bioquest IC50 calculator [51]. On the basis of obtained IC50 values for normal and malignant cells, A375 cell line and three tested compounds (CuT1, Cu10, CuT16) were chosen for further investigation.

[2] = system: SK-MEL-28 human melanoma cells; assay: MTT cell viability assay, SK-MEL-28 melanoma; type: cell-based; conditions: SK-MEL-28, MTT test, 24 h treatment
Method: as §1, §2

[3] = system: G361 human melanoma cells; assay: MTT cell viability assay, G361 melanoma; type: cell-based; conditions: G361, MTT test, 24 h treatment
Method: as §1, §2

[4] = system: BJ human normal fibroblast cells; assay: MTT cell viability assay, BJ normal fibroblasts; type: cell-based; conditions: MTT test, 24 h treatment
Method: as §1, §2

[5] = system: MLH1; assay: qRT-PCR gene expression in A375 cells: MLH1; type: cell-based, human; conditions: A375, 24 h, concentration corresponding to IC50; RQ = 2^-ΔΔCt vs control
Method: (§3) The expression level of genes connected with DNA repair and oxidative stress response was evaluated with quantitative real-time PCR (qRT-PCR) method. The A375 cells were seeded in 6-well culture plates at a density 1 × 10^5 cells/mL and after 70–80% confluency achievement the cells were treated with CuT1, Cu10, CuT16 in concentrations corresponding to IC50 values or DMSO as vehicle in control cultures. After 24h of incubation total RNA was isolated using the Syngen Blood/Cell RNA Mini Kit (Syngen Biotech, Wroclaw, Poland). All samples were transcribed using NG dART RT-PCR reagents (EURx, Gdansk, Poland) according to the manufacturer’s instructions. The relative mRNA expression level was determined by relative quantification method (ΔΔCt) using 18S ribosomal N5 (RNA18SN5) and beta-actin (ACTB) as endogenous controls. The reference genes were selected on the basis of our preliminary studies, where RNA18SN5 and ACTB remained unaffected by the experimental conditions. The PCR was conducted in triplicate using Applied Biosystems® 7500 Fast Real-Time PCR system (Applied Biosystems, Foster City, CA, USA) and SG qPCR Master Mix (2×) (EURx, Gdansk, Poland) in accordance with the manufacturer’s protocol. Data was presented and analysed as RQ values (RQ = 2^−ΔΔCt).

[6] = system: SOD2; assay: qRT-PCR gene expression in A375 cells: SOD2; type: cell-based, human; conditions: A375, 24 h, concentration corresponding to IC50; RQ = 2^-ΔΔCt vs control
Method: as §3

[7] = system: GPX2; assay: qRT-PCR gene expression in A375 cells: GPX2; type: cell-based, human; conditions: A375, 24 h, concentration corresponding to IC50; RQ = 2^-ΔΔCt vs control
Method: as §3

[8] = system: CAT; assay: qRT-PCR gene expression in A375 cells: CAT; type: cell-based, human; conditions: A375, 24 h, concentration corresponding to IC50; RQ = 2^-ΔΔCt vs control
Method: as §3

[9] = system: A375 cells; assay: Microscopic observation of cell morphology; type: cell-based, human; conditions: A375, 24 h, concentration corresponding to IC50
Method: The MTT test results for selected compounds were verified by microscopic observations of cell morphology. […] A large part of the cells floated in the culture medium (Figure 5).
as §1

[10] = system: ERCC; assay: qRT-PCR gene expression in A375 cells: ERCC; type: cell-based, human; conditions: A375, 24 h, concentration corresponding to IC50; RQ = 2^-ΔΔCt vs control
Method: as §3

[11] = system: XPC; assay: qRT-PCR gene expression in A375 cells: XPC; type: cell-based, human; conditions: A375, 24 h, concentration corresponding to IC50; RQ = 2^-ΔΔCt vs control
Method: as §3

[12] = system: MSH2; assay: qRT-PCR gene expression in A375 cells: MSH2; type: cell-based, human; conditions: A375, 24 h, concentration corresponding to IC50; RQ = 2^-ΔΔCt vs control
Method: as §3

[13] = system: DNA of A375 cells; assay: DNA damage evaluation: number of AP sites; type: cell-based, human; conditions: A375, 24 h, concentration corresponding to IC50; control 0.67 ± 0.08
Method: DNA damage was evaluated on the basis of a basic (AP) sites presence, that arose in response to oxidative damage or as an intermediate in base excision repair pathway. The A375 cells were seeded in 6-well culture plates at a density 1 × 10^5 cells/mL and after 70–80% confluency achievement the cells were treated with CuT1, Cu10, CuT16 in concentrations corresponding to IC50 values or DMSO as vehicle in control cultures. After 24 h of incubation genomic DNA was isolated using Syngen DNA Mini Kit (Syngen Biotech, Wroclaw, Poland) according to the manufacturer’s instruction. The concentrations of isolated DNA for all samples were equalized to 100 µg/mL. The measurements of the number of AP sites were evaluated with DNA Damage Quantification Kit (Dojindo, Japan) according to the manufacturer’s instruction. The DNA was treated with Aldehyde Reactive Probe (ARP) to tag all of the AP sites with a biotin residue. Then all of the AP sites were quantified using avidin—biotin assay. The coloured product of horseradish peroxidase conjugated to the avidin was detected at 650 nm using a PowerWave™ xs microplate spectrophotometer (BioTek Instruments, Winooski, VT, USA).

[14] = system: PARP1; assay: qRT-PCR gene expression in A375 cells: PARP1; type: cell-based, human; conditions: A375, 24 h, concentration corresponding to IC50; RQ = 2^-ΔΔCt vs control
Method: as §3

[15] = system: MGMT; assay: qRT-PCR gene expression in A375 cells: MGMT; type: cell-based, human; conditions: A375, 24 h, concentration corresponding to IC50; RQ = 2^-ΔΔCt vs control
Method: as §3

[16] = system: ATM; assay: qRT-PCR gene expression in A375 cells: ATM; type: cell-based, human; conditions: A375, 24 h, concentration corresponding to IC50; RQ = 2^-ΔΔCt vs control
Method: as §3

[17] = system: OGG1; assay: qRT-PCR gene expression in A375 cells: OGG1; type: cell-based, human; conditions: A375, 24 h, concentration corresponding to IC50; RQ = 2^-ΔΔCt vs control
Method: as §3

Structure (SMILES) | melting point | IC50 ([1]; Homo sapiens, A-375) | IC50 ([2]; Homo sapiens) | IC50 ([3]; Homo sapiens, G-361) | IC50 ([4]; Homo sapiens, Fibroblast) | also measured
S=C(NN=Cc1ccc(Br)cc1)Nc1ccc(Cl)cc1 [T18, 2-[(4-Bromophenyl)methylidene]-N-(4-chlorophenyl)hydrazine-1-carbothioamide] | 182 to 184 °C | – | – | – | – | –
Cc1ccccc1NC(=S)NN=Cc1ccc(Br)cc1 [T6, 2-[(4-Bromophenyl)methylidene]-N-(2-methylphenyl)hydrazine-1-carbothioamide] | 178 to 180 °C | – | – | – | – | –
S=C(NN=Cc1ccc(Cl)c(Cl)c1)Nc1ccccc1Cl [T12, 2-[(3,4-Dichlorophenyl)methylidene]-N-(2-chlorophenyl)hydrazine-1-carbothioamide] | 210 to 211 °C | 112 ± 12.8 µM | 99.6 ± 5.76 µM | 177 ± 4.09 µM | 129 ± 7.09 µM | –
COc1ccc(C=NNC(=S)Nc2ccc(Cl)cc2)cc1OC.[Cl-].[Cl-].[Cu+2] [CuT16] | – | – | – | – | – | Mean RQ MLH1 mRNA [5]: 0.929; Mean RQ SOD2 mRNA [6]: 1.393; IC50 [1]: 145 ± 19.9 µM; toxicity to A375 / malignant cells versus normal cells (in words) ([1]; from IC50 values, MTT, 24 h): less toxic for normal cells; Mean RQ GPX2 mRNA [7]: 0.022; Mean RQ CAT mRNA [8]: 0.387; IC50 [2]: 478 ± 11 µM; cell morphology (in words) [9]: became round and had poor adherence; Mean RQ ERCC mRNA [10]: 0.267; Mean RQ XPC mRNA [11]: 1.438; Mean RQ MSH2 mRNA [12]: 0.936; AP sites number [13]: 14.09 ± 0.44 AP/100 kbp; Mean RQ PARP1 mRNA [14]: 0.640; IC50 [3]: > 500 µM; Mean RQ MGMT mRNA [15]: 0.361; Mean RQ ATM mRNA [16]: 2.724; IC50 [4]: 450 ± 11.7 µM; Mean RQ OGG1 mRNA [17]: 0.952
S=C(NN=Cc1ccc(Br)cc1)Nc1cccc(Cl)c1.[Cl-].[Cl-].[Cu+2] [CuT13] | – | – | – | – | – | IC50 [1]: 110 ± 2.95 µM; IC50 [2]: 119 ± 9.75 µM; IC50 [3]: 148 ± 9.77 µM; IC50 [4]: 130 ± 3.45 µM
S=C(NN=Cc1ccc(Cl)c(Cl)c1)Nc1cccc(Cl)c1 [T15, N-(3-Chlorophenyl)-2-[(3,4-dichlorophenyl)methylidene]hydrazine-1-carbothioamide] | 210 to 212 °C | – | – | – | – | –
S=C(NN=Cc1ccc(Cl)c(Cl)c1)Nc1ccc(Cl)cc1 [T17, N-(4-Chlorophenyl)-2-[(3,4-dichlorophenyl)methylidene]hydrazine-1-carbothioamide] | 202 to 204 °C | – | – | – | – | –
COc1ccc(C=NNC(=S)Nc2ccc(Cl)cc2)cc1OC [T16] | 200 to 202 °C | > 500 µM | > 500 µM | > 500 µM | > 500 µM | –
COc1ccc(C=NNC(=S)Nc2ccccc2C)cc1OC [T7, 2-[(3,4-Dimethoxyphenyl)methylidene]-N-(2-methylphenyl)hydrazine-1-carbothioamide] | 205 to 206 °C | – | – | – | – | –
CC(=NNC(=S)Nc1ccccc1Cl)c1ccccc1 [T11, N-(2-Chlorophenyl)-2-(1-phenylethylidene)hydrazine-1-carbothioamide] | 115 to 117 °C | – | – | – | – | –
CN(C)/N=N/c1[nH]cnc1C(N)=O [DTIC, dacarbazine, reference compound] | – | 413 ± 7.08 µM | 370 ± 9.46 µM | 426 ± 4.74 µM | > 500 µM | –
Cc1ccccc1NC(=S)NN=Cc1ccc(Cl)c(Cl)c1 [T8, 2-[(3,4-Dichlorophenyl)methylidene]-N-(2-methylphenyl)hydrazine-1-carbothioamide] | 200 to 202 °C | – | – | – | – | –
COc1ccc(C=NNC(=S)Nc2ccccc2)cc1OC [T1] | – | 321 ± 2.85 µM | > 500 µM | 488.1 ± 1.66 µM | 358 ± 7.85 µM | –
S=C(NN=Cc1ccc(Cl)c(Cl)c1)Nc1ccccc1Cl.S=C(NN=Cc1ccc(Cl)c(Cl)c1)Nc1ccccc1Cl.[Cl-].[Cl-].[Cu+2] [CuT12] | – | – | – | – | – | IC50 [1]: 40.5 ± 0.98 µM; IC50 [2]: 46.1 ± 2.74 µM; IC50 [3]: 157 ± 2.75 µM; IC50 [4]: 42.9 ± 1.17 µM
S=C(NN=Cc1ccc(Br)cc1)Nc1ccccc1Cl [T9, 2-[(4-Bromophenyl)methylidene]-N-(2-chlorophenyl)hydrazine-1-carbothioamide] | 209 to 211 °C | – | – | – | – | –
CNC(=S)NN=C(C)c1ccc(N)cc1 [T4, 2-[1-(4-Aminophenyl)ethylidene]-N-methyl-hydrazine-1-carbothioamide] | 170 to 172 °C | – | – | – | – | –
COc1ccc(C=NNC(=S)Nc2ccccc2Cl)cc1OC [T10] | 179 to 180 °C | 202 ± 4.87 µM | < 500 µM | 370 ± 9.34 µM | 402 ± 13 µM | –
S=C(NN=Cc1ccc(Br)cc1)Nc1cccc(Cl)c1 [T13, 2-[(4-Bromophenyl)methylidene]-N-(3-chlorophenyl)hydrazine-1-carbothioamide] | 162 to 164 °C | 389 ± 7.06 µM | 399 ± 4.64 µM | 396 ± 6.74 µM | 412.8 ± 3.23 µM | –
